These results are taken from patent US20260138976A1 (Hoffmann-La Roche Inc., priority 2022, published 2026).

The subject of test [1] is primary human T-cells. The test can be described thus: Proliferation assay (5 days, CellTiter-Glo, CD3-stimulated T-cells). The note with it: for Emax proliferation (% activation): CD3 condition, normalised to DMSO (neutral) and 20 μM reference compound A1 = 100%; for EC50: Homo sapiens, T-cell, 120 h, CD3-stimulated primary human T-cells, 5 days, CellTiter-Glo, fitted sigmoidal curve, read-out: Tcell Proliferation CD3 EC50. The format is cell-based. The essentials: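 Proliferation read-out: ATP luminescence (CellTiter-Glo 2.0) at day 5 in expanded primary human T-cells on CD3 antibody-coated plates, with PBS-only plates as a counter screen. Compounds in 5–6 pt series (factor 3.333, top 20 or 10 μM final). Values are normalized to DMSO (neutral) and 20 μM reference A1 (100%), from sigmoidal fits.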

In test [2] the test system is primary human T-cells. Nature of the test: IL2 secretion measurements (24 h, CD3-stimulated T-cells, PBS counter screen). The format is cell-based. The note with it: for Emax IL2 (% activation): CD3 condition, normalised to DMSO (neutral) and 20 μM reference compound A1 = 100%; for EC50: Homo sapiens, T-cell, CD3-stimulated primary human T-cells, IL2 secretion, fitted sigmoidal curve, read-out: Tcell IL2 CD3 EC50. The method in brief: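 IL-2 secretion was measured by ProQuantum or ELISA after 24 h culture of expanded human T-cells with compound, on CD3-antibody-coated plates or PBS counter-screen plates. Dosing used 5–6 points from a 20 or 10 μM final top at 3.333-fold steps in 0.2% DMSO. EC50/Emax were scaled between DMSO and 20 μM reference A1.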
On the technique in general: The purpose of a counterscreen is to sort out artefacts and off-target activity.

Turning to `COC(=O)N1CC(c2nnc(-c3ccc4c(c3)N(Cc3ccc(-c5noc(C(C)(C)C)n5)cc3)C(=O)[C@@H](N)CS4(=O)=O)o2)CC(F)(F)C1` (stereo partly drawn) [Example 56, methyl 3,3-difluoro-5-[5-[(3R)-3-amino-5-[[4-(5-tert-butyl-1,2,4-oxadiazol-3-yl)phenyl]methyl]-1,1,4-trioxo-2,3-dihydro-1λ^6,5-benzothiazepin-7-yl]-1,3,4-oxadiazol-2-yl]piperidine-1-carboxylate], in test [1], the “Emax proliferation (% activation)” value stood at 425 % activation and the EC50 worked out at 2210 nM. Moreover, in test [2], the “Emax IL2 (% activation)” value was 109 % activation and the EC50 was 940 nM.

On to `CC(C)(C#N)c1nnc(-c2ccc3c(c2)N(Cc2ccc(-n4nnc(C(F)(F)F)n4)cc2)C(=O)[C@@H](N)CS3(=O)=O)o1` [Example 120, 2-[5-[(3R)-3-amino-1,1,4-trioxo-5-[[4-[5-(trifluoromethyl)tetrazol-2-yl]phenyl]methyl]-2,3-dihydro-1λ^6,5-benzothiazepin-7-yl]-1,3,4-oxadiazol-2-yl]-2-methyl-propanenitrile], for which, in test [1], the “Emax proliferation (% activation)” value amounted to 205 % activation and the EC50 was found to be 1520 nM. Also, in test [2], the “Emax IL2 (% activation)” value was 135 % activation and the EC50 was 1330 nM.

Take `N[C@H]1CS(=O)(=O)c2cc(F)c(-c3noc(N4CCOC5(CC5)C4)n3)cc2N(Cc2ccc(-c3noc(C(F)(F)F)n3)nc2)C1=O` [Example 14, (3R)-3-amino-8-fluoro-7-[5-(4-oxa-7-azaspiro[2.5]octan-7-yl)-1,2,4-oxadiazol-3-yl]-1,1-dioxo-5-[[6-[5-(trifluoromethyl)-1,2,4-oxadiazol-3-yl]-3-pyridyl]methyl]-2,3-dihydro-1λ^6,5-benzothiazepin-4-one]: in test [1], the “Emax proliferation (% activation)” value turned out to be 96 % activation and the EC50 turned out to be 3850 nM. Further, in test [2], the “Emax IL2 (% activation)” value came out at 93 % activation and the EC50 amounted to 3990 nM.

Take `CC(O)(c1nnc(-c2ccc3c(c2)N(Cc2ccc(-c4noc(C5CC5)n4)cc2)C(=O)[C@@H](N)CS3(=O)=O)o1)C(F)(F)F` (stereo partly shown) [Example 170]: in test [1], the “Emax proliferation (% activation)” value is given as 89 % activation and the EC50 stood at 1010 nM. In addition, in test [2], the “Emax IL2 (% activation)” value is recorded as 79 % activation and the EC50 came out at 8550 nM.

In the case of `CC(C)(C)c1nnc(-c2ccc(CN3C(=O)[C@@H](N)CS(=O)(=O)c4ccc(-c5nnc(C(C)(C)C)o5)cc43)cc2)o1` [Example 19, (3R)-3-amino-7-(5-tert-butyl-1,3,4-oxadiazol-2-yl)-5-[[4-(5-tert-butyl-1,3,4-oxadiazol-2-yl)phenyl]methyl]-1,1-dioxo-2,3-dihydro-1λ^6,5-benzothiazepin-4-one], in test [1], the “Emax proliferation (% activation)” value is given as 100 % activation and the EC50 was found to be 3610 nM. Moreover, in test [2], the “Emax IL2 (% activation)” value was determined as 40 % activation and the EC50 is greater than 10000 nM.

`COC(=O)N1CC(c2nnc(-c3ccc4c(c3)N(Cc3ccc(-c5ccc(C(F)(F)F)cc5)nc3)C(=O)[C@@H](N)CS4(=O)=O)o2)CC(F)(F)C1` (stereo partly drawn) [Example 57, methyl 3,3-difluoro-5-[5-[(3R)-3-amino-1,1,4-trioxo-5-[[6-[4-(trifluoromethyl)phenyl]-3-pyridyl]methyl]-2,3-dihydro-1λ^6,5-benzothiazepin-7-yl]-1,3,4-oxadiazol-2-yl]piperidine-1-carboxylate]: in test [1], the “Emax proliferation (% activation)” value amounted to 181 % activation and the EC50 is 567 nM. Further, in test [2], the “Emax IL2 (% activation)” value came out at 100 % activation and the EC50 turned out to be 652 nM.

With `N[C@H]1CS(=O)(=O)c2cc(F)c(-c3noc(N4CCOC(F)(F)C4)n3)cc2N(Cc2ccc(-c3noc(C(F)(F)F)n3)nc2)C1=O` [Example 12, (3R)-3-amino-7-[5-(2,2-difluoromorpholin-4-yl)-1,2,4-oxadiazol-3-yl]-8-fluoro-1,1-dioxo-5-[[6-[5-(trifluoromethyl)-1,2,4-oxadiazol-3-yl]-3-pyridyl]methyl]-2,3-dihydro-1λ^6,5-benzothiazepin-4-one], in test [1], the “Emax proliferation (% activation)” value is reported as 125 % activation and the EC50 was determined as 3880 nM. In test [2], the “Emax IL2 (% activation)” value came out at 167 % activation and the EC50 worked out at 3050 nM.

On to `CC(C)(C#N)c1nnc(-c2ccc3c(c2)N(Cc2ccc(-c4noc(C5CCC(F)(F)CC5)n4)cc2)C(=O)[C@@H](N)CS3(=O)=O)o1` [Example 101, 2-[5-[(3R)-3-amino-5-[[4-[5-(4,4-difluorocyclohexyl)-1,2,4-oxadiazol-3-yl]phenyl]methyl]-1,1,4-trioxo-2,3-dihydro-1λ^6,5-benzothiazepin-7-yl]-1,3,4-oxadiazol-2-yl]-2-methyl-propanenitrile], for which, in test [1], the “Emax proliferation (% activation)” value worked out at 175 % activation and the EC50 turned out to be 552 nM. Also, in test [2], the “Emax IL2 (% activation)” value worked out at 429 % activation and the EC50 stood at 3650 nM.

Consider `CC(C)(C#N)c1nnc(-c2ccc3c(c2)N(Cc2ccc(-c4ccc(OC(F)(F)F)cc4)nc2)C(=O)[C@@H](N)CS3(=O)=O)o1` [Example 119, 2-[5-[(3R)-3-amino-1,1,4-trioxo-5-[[6-[4-(trifluoromethoxy)phenyl]-3-pyridyl]methyl]-2,3-dihydro-1λ^6,5-benzothiazepin-7-yl]-1,3,4-oxadiazol-2-yl]-2-methyl-propanenitrile], for which, in test [1], the “Emax proliferation (% activation)” value is 119 % activation and the EC50 came out at 809 nM. For the same compound, in test [2], the “Emax IL2 (% activation)” value is 102 % activation and the EC50 came out at 1280 nM.

With `COc1ccc(-c2ccc(CN3C(=O)[C@@H](N)CS(=O)(=O)c4cc(F)c(-c5noc(C6(N)COC6)n5)cc43)cc2)cc1` [Example 8, (3R)-3-amino-7-[5-(3-aminooxetan-3-yl)-1,2,4-oxadiazol-3-yl]-8-fluoro-5-[[4-(4-methoxyphenyl)phenyl]methyl]-1,1-dioxo-2,3-dihydro-1λ^6,5-benzothiazepin-4-one], in test [1], the “Emax proliferation (% activation)” value came out at 143 % activation and the EC50 is 3110 nM. Besides, in test [2], the “Emax IL2 (% activation)” value was determined as 96 % activation and the EC50 worked out at 5600 nM.

In the case of `N[C@H]1CS(=O)(=O)c2ccc(-c3nnc(C4(N)CCCCC4)o3)cc2N(Cc2ccc(-c3noc(C(F)(F)F)n3)cc2)C1=O` [Example 39, (3R)-3-amino-7-[5-(1-aminocyclohexyl)-1,3,4-oxadiazol-2-yl]-1,1-dioxo-5-[[4-[5-(trifluoromethyl)-1,2,4-oxadiazol-3-yl]phenyl]methyl]-2,3-dihydro-1λ^6,5-benzothiazepin-4-one], in test [1], the “Emax proliferation (% activation)” value came to 91 % activation and the EC50 was 181 nM. For the same compound, in test [2], the “Emax IL2 (% activation)” value was 143 % activation and the EC50 was 622 nM.

With `N#CC1(c2nnc(-c3ccc4c(c3)N(Cc3ccc(-c5ccc(OC(F)(F)F)cn5)cc3)C(=O)[C@@H](N)CS4(=O)=O)o2)CCC1` [Example 172, 1-[5-[(3R)-3-amino-1,1,4-trioxo-5-[[4-[5-(trifluoromethoxy)-2-pyridyl]phenyl]methyl]-2,3-dihydro-1λ^6,5-benzothiazepin-7-yl]-1,3,4-oxadiazol-2-yl]cyclobutanecarbonitrile], in test [1], the “Emax proliferation (% activation)” value was found to be 101 % activation and the EC50 was 303 nM. Besides, in test [2], the “Emax IL2 (% activation)” value is given as 120 % activation and the EC50 turned out to be 1090 nM.

For `CC(C)(C)c1nnc(-c2ccc3c(c2)N(Cc2ccc(-c4nnc(C(F)(F)F)o4)cc2)C(=O)[C@@H](N)CS3(=O)=O)o1` [Example 24, (3R)-3-amino-7-(5-tert-butyl-1,3,4-oxadiazol-2-yl)-1,1-dioxo-5-[[4-[5-(trifluoromethyl)-1,3,4-oxadiazol-2-yl]phenyl]methyl]-2,3-dihydro-1λ^6,5-benzothiazepin-4-one], in test [1], the “Emax proliferation (% activation)” value came out at 142 % activation and the EC50 was found to be 775 nM. Besides, in test [2], the “Emax IL2 (% activation)” value was determined as 131 % activation and the EC50 came to 1060 nM.

As for `CC(C)(C#N)c1nnc(-c2ccc3c(c2)N(Cc2ccc(-c4ccc(OC(F)(F)C(F)(F)F)cn4)cc2)C(=O)[C@@H](N)CS3(=O)=O)o1` [Example 129, 2-[5-[(3R)-3-amino-1,1,4-trioxo-5-[[4-[5-(1,1,2,2,2-pentafluoroethoxy)-2-pyridyl]phenyl]methyl]-2,3-dihydro-1λ^6,5-benzothiazepin-7-yl]-1,3,4-oxadiazol-2-yl]-2-methyl-propanenitrile], in test [1], the “Emax proliferation (% activation)” value was 119 % activation and the EC50 was found to be 22.8 nM. Further, in test [2], the “Emax IL2 (% activation)” value was found to be 187 % activation and the EC50 is 552 nM.

Take `CC(C)(CC#N)c1nnc(-c2ccc3c(c2)N(Cc2ccc(-c4ccc(OC(F)(F)F)cn4)cc2)C(=O)[C@@H](N)CS3(=O)=O)o1` [Example 175, 3-[5-[(3R)-3-amino-1,1,4-trioxo-5-[[4-[5-(trifluoromethoxy)-2-pyridyl]phenyl]methyl]-2,3-dihydro-1λ^6,5-benzothiazepin-7-yl]-1,3,4-oxadiazol-2-yl]-3-methyl-butanenitrile]: in test [1], the “Emax proliferation (% activation)” value was found to be 105 % activation and the EC50 came to 121 nM. In test [2], the “Emax IL2 (% activation)” value is reported as 52 % activation and the EC50 is greater than 10000 nM.

On to `Cn1nc(C(F)(F)F)cc1-c1ccc(CN2C(=O)[C@@H](N)CS(=O)(=O)c3ccc(-c4nnc(C(C)(C)C)o4)cc32)cc1` [Example 92], for which, in test [1], the “Emax proliferation (% activation)” value stood at 170 % activation and the EC50 is 835 nM. In test [2], the “Emax IL2 (% activation)” value is 157 % activation and the EC50 is 2000 nM.
